Columns and labels:
Type in all cases: in vivo
[1] = tested on: Bemisia tabaci (Cotton White Fly); experiment: Bemisia tabaci (cotton white fly), sprayed cotton leaf discs; conditions: foliar, 144 h, application rate of 200 ppm, adult white flies on cotton leaf discs, 6 days after incubation
Method: Example B1: Bemisia tabaci (Cotton White Fly)
Cotton leaf discs were placed on agar in 24-well microtiter plates and sprayed with aqueous test solutions prepared from 10′000 ppm DMSO stock solutions. After drying the leaf discs were infested with adult white flies. The samples were checked for mortality 6 days after incubation.

[2] = tested on: Diabrotica balteata (Corn Root Worm); experiment: Diabrotica balteata (corn root worm), sprayed maize sprouts; conditions: 96 h, application rate of 200 ppm, L2 larvae on maize sprouts, 4 days after infestation
Method: Example B2: Diabrotica balteata (Corn Root Worm)
Maize sprouts, placed on an agar layer in 24-well microtiter plates were treated with aqueous test solutions prepared from 10′000 ppm DMSO stock solutions by spraying. After drying, the plates were infested with L2 larvae (6 to 10 per well). The samples were assessed for mortality and growth inhibition in comparison to untreated samples 4 days after infestation.

[3] = tested on: Euschistus heros (Neotropical Brown Stink Bug); experiment: Euschistus heros (neotropical brown stink bug), sprayed soybean leaf; conditions: 120 h, application rate of 200 ppm, N-2 nymphs on soybean leaf, 5 days after infestation
Method: Example B3: Euschistus heros (Neotropical Brown Stink Bug)
Soybean leaf on agar in 24-well microtiter plates were sprayed with aqueous test solutions prepared from 10′000 ppm DMSO stock solutions. After drying the leaf were infested with N-2 nymphs. The samples were assessed for mortality in comparison to untreated samples 5 days after infestation.

[4] = tested on: Myzus persicae (Green Peach Aphid); experiment: Myzus persicae (green peach aphid), sprayed sunflower leaf discs; conditions: foliar, 144 h, application rate of 200 ppm, mixed ages on sunflower leaf discs, 6 days after infestation
Method: Example B4: Myzus persicae (Green Peach Aphid)
Sunflower leaf discs were placed on agar in a 24-well microtiter plate and sprayed with aqueous test solutions prepared from 10′000 ppm DMSO stock solutions. After drying, the leaf discs were infested with an aphid population of mixed ages. The samples were assessed for mortality 6 days after infestation.

[5] = tested on: Myzus persicae (Green Peach Aphid); experiment: Myzus persicae (green peach aphid), roots of pea seedlings in test solution; conditions: 144 h, test rate of 24 ppm, roots of infested pea seedlings in test solution, 6 days
Method: Example B5: Myzus persicae (Green Peach Aphid)
Roots of pea seedlings infested with an aphid population of mixed ages were placed directly in the aqueous test solutions prepared from 10′000 DMSO stock solutions. The samples were assessed for mortality 6 days after placing seedlings in test solutions.

[6] = tested on: Plutella xylostella (Diamond Back Moth); experiment: Plutella xylostella (diamond back moth), treated artificial diet; conditions: 120 h, application rate of 200 ppm, L2 larvae on artificial diet, 5 days after infestation, read-out: effect in at least one of the two categories (mortality or growth inhibition)
Procedure, shortened: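 Artificial diet treated with aqueous dilutions of DMSO stocks (10′000 ppm stock), dried, then infested with 10-15 L2 larvae per well. Mortality and growth inhibition assessed versus untreated controls 5 days after infestation.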

[7] = tested on: Spodoptera littoralis (Egyqptian Cotton Leaf Worm); experiment: Spodoptera littoralis (Egyptian cotton leaf worm), sprayed cotton leaf discs; conditions: foliar, 72 h, application rate of 200 ppm, L1 larvae on cotton leaf discs, 3 days after infestation
Procedure, shortened: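 Cotton leaf discs on agar were sprayed with aqueous dilutions made from 10′000 ppm DMSO stocks, then infested after drying with five L1 larvae. Mortality, anti-feedant effect and growth inhibition were scored against untreated discs 3 days after infestation. Control means at least one of these exceeds the untreated sample.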

[8] = tested on: Spodoptera littoralis (Egyqptian Cotton Leaf Worm); experiment: Spodoptera littoralis (Egyptian cotton leaf worm), compound in agar taken up by lettuce roots; conditions: 144 h, test rate of 12.5 ppm, uptake by lettuce roots from agar, 6 days after infestation, read-out: effect in at least one of the three categories (mortality, anti-feedancy, or growth inhibition)
Source text: Example B8: Spodoptera littoralis (Egyqptian Cotton Leaf Worm)
Test compounds were applied by pipette from 10′000 ppm DMSO stock solutions into 24-well plates and mixed with agar. Lettuce seeds were placed on the agar and the multi well plate was closed by another plate which contains also agar. After 7 days the roots have absorbed the compound and the lettuce has grown into the lid plate. The lettuce leafs were now cut off into the lid plate. Spodoptera eggs were pipetted through a plastic stencil on a humid gel blotting paper and the plate closed with it. The samples were assessed for mortality, anti-feedant effect and growth inhibition in comparison to untreated samples 6 days after infestation.
The following compounds gave an effect of at least 80% in at least one of the three categories (mortality, anti-feedancy, or growth inhibition) at a test rate of 12.5 ppm: […]

[9] = tested on: Frankliniella occidentalis (Western Flower Thrips); experiment: Frankliniella occidentalis (western flower thrips), sprayed sunflower leaf discs; conditions: foliar, 168 h, application rate of 200 ppm, mixed ages on sunflower leaf discs, 7 days after infestation
Method: Example B11: Frankliniella occidentalis (Western Flower Thrips)
Sunflower leaf discs were placed on agar in 24-well microtiter plates and sprayed with aqueous test solutions prepared from […] stock solutions. After drying the leaf discs were infested with a Frankliniella population of mixed ages. The samples were assessed for mortality 7 days after infestation.

CCS(=O)(=O)c1cc(-c2cnn(C)c2)cnc1-c1nc2cc(C(F)(F)F)ncc2n1C [Compound P6]
≥ 80%: mortality at 200 ppm [1] | mortality at 200 ppm [2] | mortality at 200 ppm [3] | mortality at 200 ppm [4] | mortality at 24 ppm [5] | percent effect (mortality or growth inhibition) at 200 ppm [6] | percent control (mortality, anti-feedant effect or growth inhibition) at 200 ppm [7] | percent control (mortality, anti-feedancy or growth inhibition) at 12.5 ppm [8]

CCS(=O)(=O)c1cc(-c2cnc(OC)nc2)cnc1-c1nc2cc(C(F)(F)F)ncc2n1C [Compound P9]
≥ 80%: mortality at 200 ppm [4] | mortality at 24 ppm [5] | percent effect (mortality or growth inhibition) at 200 ppm [6] | percent control (mortality, anti-feedant effect or growth inhibition) at 200 ppm [7]

CCS(=O)(=O)c1cc(-c2ncc(C)cn2)cnc1-c1nc2cc(C(F)(F)F)ncc2n1C [Compound P22]
≥ 80%: mortality at 200 ppm [1] | mortality at 200 ppm [2] | mortality at 200 ppm [3] | mortality at 200 ppm [4] | mortality at 24 ppm [5] | percent effect (mortality or growth inhibition) at 200 ppm [6] | percent control (mortality, anti-feedant effect or growth inhibition) at 200 ppm [7] | percent control (mortality, anti-feedancy or growth inhibition) at 12.5 ppm [8]

CCS(=O)(=O)c1cc(-c2ncccc2Cl)cnc1-c1nc2cc(C(F)(F)F)ncc2n1C [Compound P32]
≥ 80%: mortality at 200 ppm [2] | mortality at 200 ppm [3] | mortality at 200 ppm [4] | percent effect (mortality or growth inhibition) at 200 ppm [6] | percent control (mortality, anti-feedant effect or growth inhibition) at 200 ppm [7] | percent control (mortality, anti-feedancy or growth inhibition) at 12.5 ppm [8] | mortality at 200 ppm [9]

CCS(=O)(=O)c1cc(-c2ccnnc2)cnc1-c1nc2cc(C(F)(F)F)ncc2n1C [Compound P33]
≥ 80%: mortality at 200 ppm [1] | mortality at 200 ppm [2] | mortality at 200 ppm [3] | mortality at 200 ppm [4] | mortality at 24 ppm [5]

CCS(=O)(=O)c1cc(-c2cccn3ncnc23)cnc1-c1nc2cc(C(F)(F)F)ncc2n1C [Compound P34]
≥ 80%: mortality at 200 ppm [2] | mortality at 200 ppm [3] | mortality at 200 ppm [4] | mortality at 24 ppm [5] | percent effect (mortality or growth inhibition) at 200 ppm [6] | percent control (mortality, anti-feedant effect or growth inhibition) at 200 ppm [7]

CCS(=O)(=O)c1cc(-c2cnc3nc(C)ccn23)cnc1-c1nc2cc(C(F)(F)F)ncc2n1C [Compound P37]
≥ 80%: mortality at 200 ppm [2] | mortality at 200 ppm [3] | mortality at 200 ppm [4] | mortality at 24 ppm [5] | percent effect (mortality or growth inhibition) at 200 ppm [6]

CCS(=O)(=O)c1cc(-c2ccnc(C)c2)cnc1-c1nc2cc(C(F)(F)F)ncc2n1C [Compound P53]
≥ 80%: mortality at 200 ppm [3] | mortality at 200 ppm [4] | mortality at 24 ppm [5] | percent effect (mortality or growth inhibition) at 200 ppm [6] | percent control (mortality, anti-feedant effect or growth inhibition) at 200 ppm [7] | percent control (mortality, anti-feedancy or growth inhibition) at 12.5 ppm [8]

CCS(=O)(=O)c1cc(-c2cnc(N)nc2C)cnc1-c1nc2cc(C(F)(F)F)ncc2n1C [Compound P58]
≥ 80%: mortality at 200 ppm [2] | mortality at 200 ppm [3] | mortality at 200 ppm [4] | mortality at 24 ppm [5] | percent effect (mortality or growth inhibition) at 200 ppm [6]

CCS(=O)(=O)c1cc(-c2cncs2)cnc1-c1nc2cc(C(F)(F)F)ncc2n1C [Compound P60]
≥ 80%: mortality at 200 ppm [2] | mortality at 200 ppm [3] | mortality at 200 ppm [4] | mortality at 24 ppm [5] | percent effect (mortality or growth inhibition) at 200 ppm [6] | percent control (mortality, anti-feedant effect or growth inhibition) at 200 ppm [7]

CCS(=O)(=O)c1cc(-c2ncncc2F)cnc1-c1nc2cc(C(F)(F)F)ncc2n1C [Compound P61]
≥ 80%: mortality at 200 ppm [2] | mortality at 200 ppm [3] | mortality at 200 ppm [4] | mortality at 24 ppm [5] | percent effect (mortality or growth inhibition) at 200 ppm [6] | percent control (mortality, anti-feedant effect or growth inhibition) at 200 ppm [7] | percent control (mortality, anti-feedancy or growth inhibition) at 12.5 ppm [8]

CCS(=O)(=O)c1cc(-c2cncc(C#N)c2)cnc1-c1nc2cc(C(F)(F)F)ncc2n1C [Compound P67]
≥ 80%: mortality at 200 ppm [1] | mortality at 200 ppm [2] | mortality at 200 ppm [3] | mortality at 200 ppm [4] | mortality at 24 ppm [5] | percent effect (mortality or growth inhibition) at 200 ppm [6]

CCS(=O)(=O)c1cc(-n2cccn2)cnc1-c1nc2cc(C(F)(F)F)ncc2n1C [Compound P84]
≥ 80%: mortality at 200 ppm [2] | mortality at 200 ppm [3] | mortality at 200 ppm [4] | mortality at 24 ppm [5] | percent effect (mortality or growth inhibition) at 200 ppm [6] | percent control (mortality, anti-feedant effect or growth inhibition) at 200 ppm [7] | percent control (mortality, anti-feedancy or growth inhibition) at 12.5 ppm [8]

CCS(=O)(=O)c1cc(-n2ccc(C)n2)cnc1-c1nc2cc(C(F)(F)F)ncc2n1C [Compound P102]
≥ 80%: mortality at 200 ppm [2] | mortality at 200 ppm [3] | mortality at 200 ppm [4] | mortality at 24 ppm [5] | percent effect (mortality or growth inhibition) at 200 ppm [6] | percent control (mortality, anti-feedant effect or growth inhibition) at 200 ppm [7]

CCS(=O)(=O)c1cc(-c2nccc(OC)n2)cnc1-c1nc2cc(C(F)(F)F)ncc2n1C [Compound P104]
≥ 80%: mortality at 200 ppm [2] | mortality at 200 ppm [3] | mortality at 200 ppm [4] | percent effect (mortality or growth inhibition) at 200 ppm [6] | percent control (mortality, anti-feedant effect or growth inhibition) at 200 ppm [7] | percent control (mortality, anti-feedancy or growth inhibition) at 12.5 ppm [8] | mortality at 200 ppm [9]

CCS(=O)(=O)c1cc(-c2cc(OC)ccn2)cnc1-c1nc2cc(C(F)(F)F)ncc2n1C [Compound P109]
≥ 80%: mortality at 200 ppm [2] | mortality at 200 ppm [3] | mortality at 200 ppm [4] | mortality at 24 ppm [5] | percent effect (mortality or growth inhibition) at 200 ppm [6] | percent control (mortality, anti-feedant effect or growth inhibition) at 200 ppm [7]

Reference: patent publication US9809587B2, “Pesticidally active heterocyclic derivatives with sulphur containing substituents” (Syngenta Participations AG, priority 2014, dated 2017)
